Experiment [1] relates to KB (epidermoid carcinoma). The experiment can be described thus: Human tumor cell replication assay (sulforhodamine B), KB. The experiment is classed as cell-based. The conditions noted are these: KB cells; for Cell Line/ED50 KB: three days of continuous exposure, SRB assay. The protocol:
(§1) Human Tumor Cell Replication Assay. Compounds were tested as inhibitors of cell growth against a limited panel of solid tumor lines including KB (epidermoid carcinoma, CL 17) and a camptothecin-resistant sub-line called KB-CPT; HCT-8 (ileocecal adenocarcinoma, CCL 244); MCF-7 (breast adenocarcinoma, HTB 22); PC-3 (prostate adenocarcinoma, CRL 1435); 1A9 (ovarian carcinoma) and a paclitaxel resistant sub-line called PTX10 with mutated β-tubulin. Drug-resistant cell lines were generous gifts of Dr. Y. C. Cheng (Yale University, New Haven, Conn.) and Dr. P. Giannakakou (NIH, Bethesda, Md.). Cell lines were adapted for growth in RPMI-1640 medium supplemented with 25 mM Hepes, 2% NaHCO3, 10% (v/v) fetal calf serum and 100 μg/mL kanamycin. Cultures were maintained in a 5% CO2 atmosphere at 37° C. The sulforhodamine B microtiter plate assay described by Rubinstein et al. (1990) J. Natl. Cancer Inst. 82:1113, was used to evaluate compounds as inhibitors of cell replication. The ED50 value, the concentration of compound that inhibited cell line replication by 50% relative to control after three days of continuous exposure was interpolated from dose-response graphs fitted to data using Prizm (GraphPad software, San Diego, Calif.).
(§2) The five conjugates (16-20) were tested for cytotoxicity against a panel of human tumor cell lines (HTCL) including paclitaxel-resistant and camptothecin-resistant derivatives as described in Rubinstein et al. (1990) J. Natl. Cancer Inst. 82:1113. The results are shown in Table 2 with the values for paclitaxel (1) and camptothecin (2) given for comparison.
On the technique in general: Sulforhodamine B stains cellular protein and so reports cell mass.

Experiment [2] relates to KB-CPT (camptothecin-resistant KB sub-line). The experiment can be described thus: Human tumor cell replication assay (sulforhodamine B), KB-CPT. The experiment is classed as cell-based. The following applies: camptothecin-resistant KB-CPT cells, three days of continuous exposure, SRB assay. How it is done: as §1, §2
The next experiment deals with 1A9 (ovarian carcinoma). As to the kind of experiment: Human tumor cell replication assay (sulforhodamine B), 1A9. The experiment is classed as cell-based. The following applies: IA9 cells; for Cell Line/ED50 IA9: three days of continuous exposure, SRB assay. How it is done: as §1, §2
The subject of experiment [3] is 1A9-PTX10 (paclitaxel resistant sub-line with mutated β-tubulin). As to the kind of experiment: Human tumor cell replication assay (sulforhodamine B), PTX10. The experiment is classed as cell-based. The conditions noted are these: paclitaxel-resistant IA9-PTX10 cells, three days of continuous exposure, SRB assay. The protocol: as §1, §2
Experiment [4] has as its system HCT-8 (ileocecal adenocarcinoma). The experiment can be described thus: Human tumor cell replication assay (sulforhodamine B), HCT-8. The conditions noted are these: HCT8 cells, three days of continuous exposure, SRB assay. The experiment is classed as cell-based. How it is done:
as §1, §2

In experiment [5] the test system is MCF-7 (breast adenocarcinoma). The experiment can be described thus: Human tumor cell replication assay (sulforhodamine B), MCF-7. The experiment is classed as cell-based. The conditions noted are these: MCF-7 cells, three days of continuous exposure, SRB assay. The protocol: as §1, §2
Experiment [6] deals with PC-3 (prostate adenocarcinoma). As to the kind of experiment: Human tumor cell replication assay (sulforhodamine B), PC-3. The experiment is classed as cell-based. The following applies: PC-3 cells, three days of continuous exposure, SRB assay. How it is done:
as §1, §2

The test system of experiment [7] is human tumor cell lines (HTCL). The experiment can be described thus: Human tumor cell line (HTCL) panel, mean over lines. The experiment is classed as cell-based. The following applies: mean from HTCL data, does not include values for drug-resistant variants. The protocol:
as §1, §2

For experiment [8], the target named is T1, human DNA Topoisomerase I (Homo sapiens, UniProt P11387).
T1 construct: purchased TopoGen, Columbus, Ohio
T1 sequence (P11387 1-765): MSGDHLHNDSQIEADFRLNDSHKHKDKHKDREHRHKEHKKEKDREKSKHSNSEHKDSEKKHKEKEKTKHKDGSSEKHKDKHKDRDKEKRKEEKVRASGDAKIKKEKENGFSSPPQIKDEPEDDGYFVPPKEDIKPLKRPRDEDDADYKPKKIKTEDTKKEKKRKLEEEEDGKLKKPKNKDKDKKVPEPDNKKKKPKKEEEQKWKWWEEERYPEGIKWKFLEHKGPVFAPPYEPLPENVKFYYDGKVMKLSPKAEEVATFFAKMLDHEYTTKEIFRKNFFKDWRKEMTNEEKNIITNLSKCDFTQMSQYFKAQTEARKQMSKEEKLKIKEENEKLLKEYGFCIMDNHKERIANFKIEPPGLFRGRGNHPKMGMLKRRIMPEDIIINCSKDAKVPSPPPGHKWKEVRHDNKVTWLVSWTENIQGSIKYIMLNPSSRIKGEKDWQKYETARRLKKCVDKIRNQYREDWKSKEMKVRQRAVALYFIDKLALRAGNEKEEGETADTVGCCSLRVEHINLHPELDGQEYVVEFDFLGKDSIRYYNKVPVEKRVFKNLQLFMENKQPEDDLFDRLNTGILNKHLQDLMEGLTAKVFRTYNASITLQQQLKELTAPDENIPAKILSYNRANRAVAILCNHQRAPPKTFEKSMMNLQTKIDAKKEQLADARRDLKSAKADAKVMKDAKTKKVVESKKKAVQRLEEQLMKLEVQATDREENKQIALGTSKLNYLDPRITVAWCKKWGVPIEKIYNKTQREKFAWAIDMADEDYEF
The experiment can be described thus: DNA Topoisomerase I activity assay (plasmid DNA relaxation). The experiment is classed as biochemical. The protocol:
DNA Topoisomerase I Activity Assay. Compounds were tested as inhibitors of enzyme catalyzed plasmid DNA relaxation. Reactions contained 0.5 μg pBR322 DNA and 0.5 U human DNA Topoisomerase I (TopoGen, Columbus, Ohio), compounds at 50 μM and buffer components described previously in Krishnan et al. (2000) Anticancer Drug Design 15:255. After 15 min at 37° C., reactions were terminated by adding proteinase K (0.1 mg/mL) and 1% (w/v) SDS. After 1 hour at 50° C., DNA was resolved on a 1% (w/v) agarose gel containing […] ethidium bromide in standard TBE buffer, and photographed under UV light using polaroid 667 film.
Conjugates 16-20 were also tested as inhibitors of human DNA topo I activity in vitro (FIG. 4) in the manner as described in Krishnan et al. (2000) Anticancer Drug Design 15:255. […] None of the conjugates inhibited DNA relaxation.

[9] abbreviates: at lowest test concentration (inhibition >50%).

Regarding `CCC1(O)C(=O)OCc2c1cc1n(c2=O)Cc2c-1nc1ccccc1c2C=NCCC(=O)OC1CC2OCC2(OC(C)=O)C2C(OC(=O)c3ccccc3)C3(O)CC(OC(=O)C(O)C(NC(=O)c4ccccc4)c4ccccc4)C(C)=C(C(OC(C)=O)C(=O)C12C)C3(C)C` (stereo not drawn) [Compound 16], the “observed percentage inhibition (bracketed value)” value in experiment [1] (setting [9]) is on record as “(67) %”; in the experiment on 1A9 (ovarian carcinoma) (setting [9]), “(76) %”. Also, in experiment [1], the “Cell Line/ED50 KB” value is recorded as less than −11.0 log10 M. Also, the “Cell Line/ED50 KB-CPT” value in experiment [2] is given as −11.1 log10 M. Also, the “Cell Line/ED50 IA9” value in the experiment with 1A9 (ovarian carcinoma) is on record as less than −11.0 log10 M. For the same compound, in experiment [3], the “Cell Line/ED50 IA9-PTX10” value was −10.9 log10 M. Also, in [4], the “Cell Line/ED50 HCT8” value was −10.6 log10 M. The “Cell Line/ED50 MCF-7” value in experiment [5] was −7.1 log10 M. In [6], the “Cell Line/ED50 PC-3” value is given as −7.0 log10 M. For the same compound, in [7], the “Mean ED50” value is less than −9.3 log10 M. In [8], the “inhibition of human DNA topo I activity in vitro” value (“inhibition … in vitro” below) is given as “only marginal activity”.

Consider `CC(=O)O[C@H]1C(=O)[C@@]2(C)[C@H]([C@H](OC(=O)c3ccccc3)[C@]3(O)C[C@H](OC(=O)[C@H](O)[C@@H](NC(=O)c4ccccc4)c4ccccc4)C(C)=C1C3(C)C)[C@]1(OC(C)=O)CO[C@@H]1C[C@@H]2O` [Paclitaxel, reference compound], for which the “Cell Line/ED50 KB” value in experiment [1] is on record as −12.1 log10 M. Besides, the “Cell Line/ED50 KB-CPT” value in experiment [2] is on record as −12.2 log10 M. Also, the “Cell Line/ED50 IA9” value in the experiment on 1A9 (ovarian carcinoma) is recorded as −12.2 log10 M. The “Cell Line/ED50 IA9-PTX10” value in experiment [3] is −11.7 log10 M. Moreover, the “Cell Line/ED50 HCT8” value in [4] is −7.1 log10 M. Further, in experiment [5], the “Cell Line/ED50 MCF-7” value is recorded as −13.9 log10 M. Besides, the “Cell Line/ED50 PC-3” value in experiment [6] is given as −10.3 log10 M. In addition, in experiment [7], the “Mean ED50” value is given as −11.1 log10 M.

With `CCC1(O)C(=O)OCc2c1cc1n(c2=O)Cc2c-1nc1ccccc1c2C=NCCCC(=O)OC1CC2OCC2(OC(C)=O)C2C(OC(=O)c3ccccc3)C3(O)CC(OC(=O)C(O)C(NC(=O)c4ccccc4)c4ccccc4)C(C)=C(C(OC(C)=O)C(=O)C12C)C3(C)C` (stereo not drawn) [Compound 17], the “Cell Line/ED50 KB” value in experiment [1] is −10.4 log10 M. Further, the “Cell Line/ED50 KB-CPT” value in [2] is given as −9.7 log10 M. Also, the “Cell Line/ED50 IA9” value in the experiment on 1A9 (ovarian carcinoma) is on record as −10.2 log10 M. Besides, the “Cell Line/ED50 IA9-PTX10” value in experiment [3] is given as −10.5 log10 M. Moreover, the “Cell Line/ED50 HCT8” value in experiment [4] is given as −10.0 log10 M. Also, in experiment [5], the “Cell Line/ED50 MCF-7” value is listed as −7.1 log10 M. Moreover, the “Cell Line/ED50 PC-3” value in [6] is −7.1 log10 M. Besides, the “Mean ED50” value in [7] was −9.0 log10 M. For the same compound, the “inhibition … in vitro” value in experiment [8] is “inactive”.

For `CC[C@@]1(O)C(=O)OCc2c1cc1n(c2=O)Cc2cc3ccccc3nc2-1` [Camptothecin, camptothecin], the “Cell Line/ED50 KB” value in [1] is on record as −10.8 log10 M. Also, in experiment [2], the “Cell Line/ED50 KB-CPT” value is −7.5 log10 M. Besides, the “Cell Line/ED50 IA9” value with 1A9 (ovarian carcinoma) is given as −10.2 log10 M. The “Cell Line/ED50 IA9-PTX10” value in experiment [3] is listed as −9.4 log10 M. The “Cell Line/ED50 HCT8” value in [4] is recorded as −9.3 log10 M. In addition, the “Cell Line/ED50 MCF-7” value in experiment [5] is −7.1 log10 M. Also, in experiment [6], the “Cell Line/ED50 PC-3” value is reported as −7.1 log10 M. For the same compound, the “Mean ED50” value in [7] was −8.9 log10 M.

With `CCC1(O)C(=O)OCc2c1cc1n(c2=O)Cc2c-1nc1ccccc1c2C=NCCCCCC(=O)OC1CC2OCC2(OC(C)=O)C2C(OC(=O)c3ccccc3)C3(O)CC(OC(=O)C(O)C(NC(=O)c4ccccc4)c4ccccc4)C(C)=C(C(OC(C)=O)C(=O)C12C)C3(C)C` (stereo not drawn) [Compound 18], the “Cell Line/ED50 KB” value in experiment [1] was −9.3 log10 M. Further, the “Cell Line/ED50 KB-CPT” value in [2] is given as −8.1 log10 M. Moreover, the “Cell Line/ED50 IA9” value in the experiment on 1A9 (ovarian carcinoma) is −10.0 log10 M. Further, in experiment [3], the “Cell Line/ED50 IA9-PTX10” value is on record as −10.5 log10 M. Further, in experiment [4], the “Cell Line/ED50 HCT8” value was −10.6 log10 M. For the same compound, the “Cell Line/ED50 MCF-7” value in [5] is recorded as −7.5 log10 M. In [6], the “Cell Line/ED50 PC-3” value is recorded as −7.5 log10 M. The “Mean ED50” value in experiment [7] is on record as −9.0 log10 M. In addition, the “inhibition … in vitro” value in experiment [8] is “only marginal activity”.
